Each structure is given as a SMILES string.

The target of the assay is PolQ ATPase enzyme (1-894) (Homo sapiens (Human), UniProt O75417). As to the kind of experiment: Polθ ATPase enzymatic assay (0.5 nM enzyme concentration), ADP-Glo. It counts as biochemical. The conditions noted are these: average IC50; 0.5 nM PolQ ATPase enzyme (1-894). The method in brief: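 Enzyme (0.5 nM) pre-incubated 15 min at rt with 10-point inhibitor series in 50 mM Tris pH 7.5, 10% glycerol, 5 mM DTT, 10 mM MgCl2, 0.1 mg/ml BSA; reaction started with 20 nM fork DNA and 100 μM ATP, run 180 min at rt. ADP-Glo luminescence; IC50 from 4-parameter variable-slope fit.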
Chain of PolQ ATPase enzyme (1-894) (O75417 1-894): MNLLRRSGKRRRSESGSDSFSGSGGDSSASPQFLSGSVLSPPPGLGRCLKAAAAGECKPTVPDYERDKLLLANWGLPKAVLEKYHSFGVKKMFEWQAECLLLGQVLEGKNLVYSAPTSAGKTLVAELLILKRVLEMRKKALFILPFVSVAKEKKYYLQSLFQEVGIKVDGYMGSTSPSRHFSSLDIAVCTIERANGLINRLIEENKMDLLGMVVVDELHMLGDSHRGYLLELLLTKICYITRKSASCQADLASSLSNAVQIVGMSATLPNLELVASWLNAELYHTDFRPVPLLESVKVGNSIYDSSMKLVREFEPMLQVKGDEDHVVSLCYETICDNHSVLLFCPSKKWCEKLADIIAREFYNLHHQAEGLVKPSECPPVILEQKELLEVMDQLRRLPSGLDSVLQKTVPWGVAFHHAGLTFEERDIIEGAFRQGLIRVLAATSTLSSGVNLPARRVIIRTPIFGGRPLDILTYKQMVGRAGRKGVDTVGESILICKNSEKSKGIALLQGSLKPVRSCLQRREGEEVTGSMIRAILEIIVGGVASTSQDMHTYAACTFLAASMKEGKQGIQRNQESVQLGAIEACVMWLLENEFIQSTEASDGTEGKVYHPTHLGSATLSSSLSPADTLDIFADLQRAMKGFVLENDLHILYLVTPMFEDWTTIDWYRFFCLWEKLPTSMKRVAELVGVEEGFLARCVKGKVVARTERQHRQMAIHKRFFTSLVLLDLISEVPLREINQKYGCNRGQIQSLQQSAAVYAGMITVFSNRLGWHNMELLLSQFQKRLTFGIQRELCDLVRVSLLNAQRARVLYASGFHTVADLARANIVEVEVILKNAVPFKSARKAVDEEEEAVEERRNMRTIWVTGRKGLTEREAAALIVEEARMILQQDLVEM

In the case of `COc1cnc(C(F)F)cc1-c1cc(C#CCN2CCOCC2)ccc1C(=O)Nc1nnc(C#CC2CC2)s1` [Compound 219], the IC50 was less than 0.25 nM.
With `COc1cnc(C(F)F)cc1-c1cc(N(C)C(=O)C2(C)COC2)ccc1C(=O)Nc1nnc(C#CC2CC2)s1` [Compound 220], it took 0.78 nM to reach half-maximal inhibition (IC50).
The figure for `COc1cnc(C(F)F)cc1-c1cc(N(C)C(=O)C2(C)CC2)ccc1C(=O)Nc1nnc(C#CC2CC2)s1` [Compound 221] is 0.98 nM; for `COc1cnc(C(F)F)cc1-c1cc(N(C)C(=O)C2CC2)ccc1C(=O)Nc1nnc(C#CC2CC2)s1` [Compound 222] it is less than 0.25 nM; for `COc1cnc(C(F)F)cc1-c1cc(C#CC2CCOC2)ncc1C(=O)Nc1ncc(C#CC2CC2)s1` (centres unmarked) [Compound 223] it is 0.29 nM.
Turning to `[2H]C([2H])([2H])N(C(=O)C1CC(C)(O)C1)c1ccc(C(=O)Nc2nnc(C#CC3CC3)s2)c(-c2cc(C(F)F)ncc2OC)c1` (centres unmarked) [Compound 224], half-maximal inhibition (IC50) required 0.35 nM.
On to `COc1cnc(C(F)F)cc1-c1cc(NC(C)=O)ccc1C(=O)Nc1nnc(C#CC2CC2)s1` [Compound 225], for which the IC50 was determined as 0.56 nM.
The compound `COc1cnc(C(F)F)cc1-c1cc(CC#N)ncc1C(=O)Nc1nnc(C#CC2CC2)s1` [Compound 226] returned an IC50 of 0.61 nM. The IC50 values of the last two compounds are within 1.5-fold of each other.
To `COc1cnc(C(F)F)cc1-c1cc(CN2CCOCC2=O)ccc1C(=O)Nc1nnc(C#CC2CC2)s1` [Compound 227] belongs 6.9 nM; to `COc1cnc(C(F)F)cc1-c1cc(CC(=O)N2CCOCC2)ccc1C(=O)Nc1nnc(C#CC2CC2)s1` [Compound 228], less than 0.25 nM; to `[2H]C([2H])([2H])N(C(=O)C1CCOC1)c1ccc(C(=O)Nc2nnc(C#CC3CC3)s2)c(-c2cc(C(F)F)ncc2OC)c1` (centres unmarked) [Compound 229], 1.4 nM.
The figure for `CNC(=O)Cc1ccc(C(=O)Nc2nnc(C#CC3CC3)s2)c(-c2cc(C(F)F)ncc2OC)c1` [Compound 230] is less than 0.25 nM; for `COc1cnc(C(F)F)cc1-c1cc(CN2CCN(C)C2=O)ccc1C(=O)Nc1nnc(C#CC2CC2)s1` [Compound 231] it is 1.6 nM; for `[2H]C([2H])([2H])N(C(C)=O)c1ccc(C(=O)Nc2nnc(C#CC3CC3)s2)c(-c2cc(C(F)F)ncc2OC)c1` [Compound 232] it is less than 0.25 nM.
Compound `COc1cnc(C(F)F)cc1-c1cc(C#CC2(n3cccn3)CC2)ncc1C(=O)Nc1nnc(C#CC2CC2)s1` [Compound 233] came in with a half-maximal inhibitory concentration (IC50) of less than 0.25 nM.
`COc1cnc(Cl)cc1-c1cc(C2(C(=O)N(C)C)CC2)ccc1C(=O)Nc1nnc(C#CC2CC2)s1` [Compound 234]: half-maximal inhibition (IC50) was put at 34 nM.
The figure for `COc1cnc(C(F)F)cc1-c1cc(N2CCOCC2)ncc1C(=O)Nc1nnc(C#CC2CC2)s1` [Compound 235] is 19 nM; for `COc1cnc(C(F)F)cc1-c1cc(C#CCN(C)C)ccc1C(=O)Nc1nnc(C#CC2CC2)s1` [Compound 236] it is 0.56 nM.
In the case of `[2H]C([2H])([2H])N(C(C)=O)c1ccc(C(=O)Nc2nnc(C#CC3CC34CC4)s2)c(-c2cc(C(F)F)ncc2OC)c1` (centres unmarked) [Compound 237], the IC50 is less than 0.25 nM.
As for `COc1cnc(C(F)F)cc1-c1cc(C#CC2(O)CCS(=O)(=O)CC2)ccc1C(=O)Nc1ncc(C#CC2CC2)s1` [Compound 238], the IC50 came to 3.6 nM. This counts as single-digit nanomolar.
To `COc1cnc(C(F)F)cc1-c1cc(N2CCOCC2)ccc1C(=O)Nc1nnc(C#CC2CC2)s1` [Compound 239] belongs 18 nM.
To `COc1cnc(C(F)F)cc1-c1cc(C#CC(C)(C)CO)ccc1C(=O)Nc1nnc(C#CC2CC2)s1` [Compound 240] belongs 0.73 nM; to `COc1cnc(C(F)F)cc1-c1cc(C#CC(C)(C)CO)ncc1C(=O)Nc1nnc(C#CC2CC2)s1` [Compound 241], 0.33 nM; to `COc1cnc(C(F)F)cc1-c1cc(C#CCN2CCS(=O)(=O)CC2)ccc1C(=O)Nc1nnc(C#CC2CC2)s1` [Compound 242], 0.35 nM.
In turn, `CNc1ccc(C(=O)Nc2nnc(C#CC3CC3)s2)c(-c2cc(C(F)F)ncc2OC)c1` [Compound 243] registered an IC50 of 15 nM.
Compound `COc1cnc(C(F)F)cc1-c1cc(Cc2nnc(C)o2)ccc1C(=O)Nc1nnc(C#CC2CC2)s1` [Compound 244] displayed an IC50 of less than 0.25 nM.
On to `COc1cnc(C(F)F)cc1-c1cc(CC(=O)N(C)C)ncc1C(=O)Nc1nnc(C#CC2CC2)s1` [Compound 245], for which the IC50 is less than 0.25 nM.
The figure for `COc1cnc(C(F)F)cc1-c1cc(C#CC2(OC)CCOCC2)ccc1C(=O)Nc1nnc(C#CC2CC2)s1` [Compound 246] is 1.1 nM; for `COc1cnc(C(F)F)cc1-c1cc(C2CC2)ncc1C(=O)Nc1nnc(C#CC2CC2)s1` [Compound 247] it is 2.9 nM; for `COc1ccc(C(F)(F)F)cc1-c1cc(C#CC(C)O)ncc1C(=O)Nc1nnc(C#CC2CC2)s1` (centres unmarked) [Compound 248] it is less than 0.25 nM.
`COc1ccc(C(F)(F)F)cc1-c1cc(C#CC2CCCOC2)ncc1C(=O)Nc1nnc(C#CC2CC2)s1` (centres unmarked) [Compound 249] showed an IC50 of 0.77 nM. In other words, the sub-nanomolar range.
Compound `COc1cnc(Cl)cc1-c1cc(C2(C(=O)O)CC2)ccc1C(=O)Nc1nnc(C#CC2CC2)s1` [Compound 250] returned an IC50 of 1.3 nM. This IC50 is about 1.7-fold higher than that of the compound before.
`COc1cnc(C(F)F)cc1-c1cc(C#N)ccc1C(=O)Nc1nnc(C#CC2CC2)s1` [Compound 251] displayed an IC50 of 0.45 nM.
`COc1cnc(C(F)F)cc1-c1cc(-c2cnn(C)c2)ncc1C(=O)Nc1nnc(C#CC2CC2)s1` [Compound 252]: the IC50 was less than 0.25 nM.
`COc1cnc(C(F)F)cc1-c1cc(C#CC(C)(C)O)ncc1C(=O)Nc1nnc(C#CC2CC2)s1` [Compound 253]: the IC50 is less than 0.25 nM.
To `COc1cnc(C(F)F)cc1-c1cc(C(=O)N2CCOCC2)ccc1C(=O)Nc1nnc(C#CC2CC2)s1` [Compound 254] belongs 1.7 nM.
`COc1cnc(C(F)F)cc1-c1cc(C#CC2(O)CCOCC2)ncc1C(=O)Nc1nnc(C#CC2CC2)s1` [Compound 255] registered a half-maximal inhibitory concentration (IC50) of 0.26 nM.
Compound `COc1cnc(C(F)F)cc1-c1cc(CCC2(O)CCS(=O)(=O)CC2)ccc1C(=O)Nc1nnc(C#CC2CC2)s1` [Compound 256] displayed a 50% inhibitory concentration (IC50) of 2.9 nM. Compared with the last compound, the IC50 is about 11-fold higher.
Take `COc1cnc(C(F)F)cc1-c1cc(C(=O)N(C)C)ccc1C(=O)Nc1ncc(C#CC2CC2)s1` [Compound 257]: the IC50 is 26 nM.
The figure for `COc1cnc(C(F)F)cc1-c1cc(C(=O)N(C)C)ccc1C(=O)Nc1nnc(C#CC2CC2)s1` [Compound 258] is 2.9 nM; for `COc1cnc(C(F)F)cc1-c1cc(Cl)ncc1C(=O)Nc1nc(C#N)c(C#CC2CC2)s1` [Compound 259] it is 1.2 nM; for `COc1cnc(C(F)F)cc1-c1cc(C[S+](C)[O-])ccc1C(=O)Nc1nnc(C#CC2CC2)s1` (centres unmarked) [Compound 260] it is 2 nM.
`COc1cnc(C(F)F)cc1-c1cc(-n2cccn2)ncc1C(=O)Nc1nnc(C#CC2CC2)s1` [Compound 261] yielded an IC50 of 0.62 nM.
Turning to `COc1cnc(C(F)F)cc1-c1cc(-n2ccnc2)ncc1C(=O)Nc1nnc(C#CC2CC2)s1` [Compound 262], the IC50 stood at 0.29 nM.
Compound `COc1cnc(C(F)F)cc1-c1cc(-n2cncn2)ncc1C(=O)Nc1nnc(C#CC2CC2)s1` [Compound 263] displayed an IC50 of less than 0.25 nM.
`COc1cnc(C(F)F)cc1-c1cc(C#CC2(O)CCS(=O)(=O)CC2)ccc1C(=O)Nc1nnc(C#CC2CC2)s1` [Compound 264]: the IC50 is less than 0.25 nM.
Turning to `COc1cnc(C(F)F)cc1-c1cc(CC(=O)N(C)C)ccc1C(=O)Nc1nnc(C#CC2CC2)s1` [Compound 265], the concentration for half-maximal inhibition (IC50) is less than 0.25 nM.

One may read the IC50 as the point on the concentration scale where inhibition reaches its midpoint. Lower therefore signals higher potency.

These data come from US20250026748A1, “N-(5-SUBSTITUTED-[(1,3,4-THIADIAZOLYL) OR (THIAZOLYL)])(SUBSTITUTED)CARBOXAMIDE COMPOUNDS AND USE THEREOF FOR INHIBITING HUMAN POLYMERASE THETA” (Repare Therapeutics Inc., priority 2021, published 2025).
